In patent US20070066580A1, “Novel aldosterone antagonists and uses thereof” (Recordati Ireland Limited, priority 2005, published 2007):

Experiments:
[1] = molecular target: T1, GAL4 DBD-hMR LBD fusion protein (Homo sapiens, UniProt P08235); assay: Cell-based luciferase assay, agonist mode (CV-1 cells); conditions: 10 μM of compound
T1 construct: expressed in transfected cells; host or cells: CV-1 cells (African green monkey kidney), transient co-transfection with pCMX-GAL4-based vector and Galp3TKLuc reporter
Description: GAL4 DBD-hMR LBD fusion protein expression vector: A pCMX-GAL4-based vector was used for the expression of a fusion protein composed of the amino acids 1-147 of the DNA binding domain of Saccharomyces cerevisiae GAL4 (GAL4 DBD) (SEQ ID NO: 16) and amino acid residues 729-984 of the ligand binding domain of human mineralocorticoid receptor (hMR LBD) (SEQ ID NO: 14). The expression vector contained an expression cassette of the nucleotide sequence for the GAL4 DBD (See SEQ ID NO: 19) ligated to nucleotides 2401 through 3168 of the human mineralocorticoid (hMR) receptor (SEQ ID NO: 13).
In vitro cell culture: CV-1 cells (African green monkey kidney cell line, ATCC accession number CCL-70) were maintained in culture in 90% DMEM medium supplemented by 9% FCS and 1% Penicillin-Streptomycin-L-Glutamine at 37° C. under 8.5% CO2.
These cells were transiently co-transfected with the GAL4 DBD-hMR LBD fusion protein expression vector and the Galp3TKLuc reporter gene vector using the FuGENE 6 Transfection Reagent (Roche) according to the manufacturer's instructions.
Agonist assay: As a positive control, aldosterone (Acros Organics, catalogue # 215360050) was used at a concentration of 100 nM. The negative control sample was 90% DMEM medium supplemented by 9% charcoal-treated FCS and 1% Penicillin-Streptomycin-L-Glutamine containing 0.2% DMSO plus 0.02% ethanol. Positive control, negative control, or 10 μM final concentration of test compound was added to the cells and incubated for 24 hours at 37° C. under 8.5% CO2 before the Luciferase substrate (Promega, catalogue number #E2620) was added. After an incubation period of 5 min at RT, luminescence signals were read on a microplate reader (Molecular Devices/LJL Biosystems). Negative and positive controls were defined as 0% and 100% agonism, respectively. The agonistic potency of test compounds is given in % and was normalized to the positive and negative controls.

[2] = molecular target: T2, ligand binding domain of the human mineralocorticoid receptor (hMR LBD) (Homo sapiens, UniProt P08235); assay: Mineralocorticoid receptor (MR) in vitro competitive binding assay, [3H]aldosterone displacement; conditions: IR^TOTAL = sum of IR^AR/MR, IR^ER/MR, IR^GR/MR, IR^PR/MR
T2 construct: made in house; host or cells: Sf9 insect cells (baculovirus, pFastBac)
T2 sequence (P08235 729-984): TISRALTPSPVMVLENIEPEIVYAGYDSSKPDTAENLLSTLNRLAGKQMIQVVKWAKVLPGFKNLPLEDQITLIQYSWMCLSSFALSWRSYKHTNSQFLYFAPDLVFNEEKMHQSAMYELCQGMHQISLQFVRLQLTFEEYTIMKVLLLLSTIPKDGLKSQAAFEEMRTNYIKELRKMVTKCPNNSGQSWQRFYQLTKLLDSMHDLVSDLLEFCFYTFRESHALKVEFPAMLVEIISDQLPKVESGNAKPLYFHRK
Method: Mineralocorticoid receptor (MR) binding assay: Spodoptera furgiperda (Sf9) insect cells (ATCC accession number CRL-1711) were maintained in culture in EX-CELL™ 420 serum free medium (JRH Biosciences, Inc.) at 27° C.
A recombinant baculovirus containing nucleotide sequences encoding the ligand binding domain of the human mineralocorticoid receptor (hMR) cloned into the pFastBac™ vector was generated using the Bac-to-Bac® Baculovirus Expression System Kit (Invitrogen) following the manufacturer's instructions. This recombinant baculovirus contains nucleotides 2401 through 3168 (SEQ ID NO: 13) of hMR, providing for expression of the ligand binding domain (LBD), amino acid residues 729-984 (SEQ ID NO: 14), of hMR (hMR LBD). Cultured Sf9 insect cells were transfected with this recombinant baculovirus following the manufacturer's instructions.
For the binding assay, a crude lysate of the hMR LBD-expressing insect cells was prepared. The crude lysate was diluted 12.5-fold with binding buffer (20 mM Tris-HCl pH 7.4, 1 mM EDTA, 1 mM dithiothreitol, 20 mM sodium tungstate, 50 mM KCl and 10% glycerol).
For the negative control sample, the diluted lysate was incubated with a 10 nM final concentration of the radioligand [1,2,6,7-^3H] aldosterone (Amersham Biosciences, catalogue # 434) for 3.5 h at 4° C. For test compounds and the positive control sample, the diluted lysate was incubated with various concentrations of test compound or with a 20 μM final concentration of spironolactone (Sigma, S-3378) as a reference compound for 45 min on ice, and was then incubated with a 10 nM final concentration of [1,2,6,7-^3H] aldosterone for 3.5 h at 4° C.
Using a CellHarvester (PerkinElmer, formerly Packard Biosciences), receptor/ligand complexes were retained on 96-well GF/B filters (PerkinElmer, formerly Packard Biosciences) while free radioligand passed through the filters. Scintillation counting of GF/B filter plates was performed using a TopCount NXT (PerkinElmer, formerly Packard Biosciences) to quantitate the amount of [1,2,6,7-^3H] aldosterone bound to the hMR LBD.
The IC50 of a test compound was determined from the concentration of test compound giving half-maximal displacement as obtained by nonlinear least-squares curve fitting to a one-site binding sigmoidal model using Prism 3.0 (Graph Pad Software, Inc., San Diego, US). The calculated IC50 values represent the average values calculated from the results of 1-3 experiments carried out in duplicate.
IC50 and inhibitory ratio calculations: To provide a measure of the potency of each test compound as an antagonist of MR, the IC50 of each test compound (IC50^Test) for ligand binding to MR and the IC50 of the known MR antagonists eplerenone (IC50^Ep) and spironolactone (IC50^Sp) for ligand binding to MR were used to calculate an IC50 ratio (RIC50) according to the following equations: RIC50^Ep/Test=IC50^Ep/IC50^Test and RIC50^Sp/Test=IC50^Sp/IC50^Test.
These individual inhibitory ratios were used to calculate a total inhibitory ratio (IR^TOTAL) according to the following equation: IR^TOTAL=IR^AR/MR+IR^ER/MR+IR^GR/MR+IR^PR/MR. B. Results and Discussion

T1 sequence (P08235 with tags, fused parts or gaps limits assumed): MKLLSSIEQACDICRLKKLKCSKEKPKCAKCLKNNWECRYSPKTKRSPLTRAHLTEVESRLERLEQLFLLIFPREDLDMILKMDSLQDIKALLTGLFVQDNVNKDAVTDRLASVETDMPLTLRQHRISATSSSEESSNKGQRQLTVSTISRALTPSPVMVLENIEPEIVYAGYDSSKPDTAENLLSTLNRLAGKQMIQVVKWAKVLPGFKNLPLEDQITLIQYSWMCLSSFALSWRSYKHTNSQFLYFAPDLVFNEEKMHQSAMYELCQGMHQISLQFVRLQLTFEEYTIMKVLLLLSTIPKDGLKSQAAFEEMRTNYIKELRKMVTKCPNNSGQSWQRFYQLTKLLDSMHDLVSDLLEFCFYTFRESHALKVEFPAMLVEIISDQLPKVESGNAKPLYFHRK

SMILES	potency for activation of MR relative to aldosterone [1]	IR^TOTAL compared with the IR^TOTAL for eplerenone [2]	IR^TOTAL compared with the IR^TOTAL for spironolactone [2]
CCC[C@@H]1CC2=CC(=O)CC[C@]2(C)C2=CC[C@@]3(C)C(C21)[C@@H]1C[C@@H]1[C@@]31CCC(=O)O1 (some centres unmarked) [Example 70]	at least three orders of magnitude less potent than aldosterone	at least an order of magnitude greater than the IR^TOTAL for eplerenone	at least an order of magnitude greater than the IR^TOTAL for spironolactone
CCCS[C@@H]1CC2=CC(=O)CC[C@]2(C)[C@@]23O[C@@H]2C[C@@]2(C)C(CC[C@@]24CCC(=O)O4)C13 (some centres unmarked) [Example 12]	at least three orders of magnitude less potent than aldosterone	–	–
CCC[C@@H]1CC2=CC(=O)CC[C@]2(C)C2=CC[C@@]3(C)C(CC[C@@]34CCC(=O)O4)C21 (some centres unmarked) [Example 9]	at least three orders of magnitude less potent than aldosterone	–	–
C=CCC[C@@H]1CC2=CC(=O)CC[C@]2(C)C2=CC[C@@]3(C)C(CC[C@@]34CCC(=O)O4)C21 (some centres unmarked) [Example 8]	at least three orders of magnitude less potent than aldosterone	–	–
C[C@]12CCC(=O)C=C1C[C@@H](C#N)C1C2=CC[C@@]2(C)C1[C@@H]1C[C@@H]1[C@@]21COC(=O)O1 (some centres unmarked) [Example 76]	–	at least an order of magnitude greater than the IR^TOTAL for eplerenone	at least an order of magnitude greater than the IR^TOTAL for spironolactone
C[C@@H]1CC2=CC(=O)CC[C@]2(C)C2=CC[C@@]3(C)C(CC[C@@]34CCC(=O)O4)C21 (some centres unmarked) [Example 26]	at least three orders of magnitude less potent than aldosterone	–	–
C[C@]12CCC(=O)C=C1CCC1C2=CC[C@@]2(C)C1[C@@H]1C[C@@H]1[C@@]21COC(=O)O1 (some centres unmarked) [Example 75]	–	at least an order of magnitude greater than the IR^TOTAL for eplerenone	at least an order of magnitude greater than the IR^TOTAL for spironolactone
CC(=O)S[C@@H]1CC2=CC(=O)CC[C@]2(C)[C@@]23O[C@@H]2C[C@@]2(C)C(CC[C@@]24COC(=O)O4)C13 (some centres unmarked) [Example 46]	–	at least an order of magnitude greater than the IR^TOTAL for eplerenone	greater than the IR^TOTAL for spironolactone
CC(=O)S[C@@H]1CC2=CC(=O)CC[C@]2(C)C2=CC[C@@]3(C)C(CC[C@@]34CCC(=O)O4)C21 (some centres unmarked) [Example 11]	–	at least an order of magnitude greater than the IR^TOTAL for eplerenone	greater than the IR^TOTAL for spironolactone
CCC[C@@H]1CC2=CC(=O)CC[C@]2(C)[C@@]23O[C@@H]2C[C@@]2(C)C(C13)[C@@H]1C[C@@H]1[C@@]21CCC(=O)O1 (some centres unmarked) [Example 71]	at least three orders of magnitude less potent than aldosterone	–	–
C[C@]12CCC(=O)C=C1C[C@@H](SCC(F)(F)F)C1C2=CC[C@@]2(C)C1CC[C@@]21CCC(=O)O1 (some centres unmarked) [Example 18]	at least three orders of magnitude less potent than aldosterone	–	–
C[C@]12CCC(=O)C=C1CCC1C3CC[C@@]4(COC(=O)O4)[C@@]3(C)C[C@H]3O[C@@]132 (some centres unmarked) [Example 41]	at least three orders of magnitude less potent than aldosterone	–	–
CO/N=C/[C@@H]1CC2=CC(=O)CC[C@]2(C)C2=CC[C@@]3(C)C(CC[C@@]34CCC(=O)O4)C21 (some centres unmarked) [Example 34]	at least three orders of magnitude less potent than aldosterone	–	–
CCC[C@@H]1CC2=CC(=O)CC[C@]2(C)[C@@]23O[C@@H]2C[C@@]2(C)C(CC[C@@]24CCC(=O)O4)C13 (some centres unmarked) [Example 10]	at least three orders of magnitude less potent than aldosterone	–	–
